A short description of data set [1]: Stability of active ingredients in the formulation, two weeks at 54° C. Conditions: for % wt after 2 week at 54° C. / Initial % wt: formulation of Table 5 (emulsion).
Data set [2] is described as follows: Stability of fenoxaprop-p-ethyl in the formulation at ambient temperature (~22° C.). It is filed as physicochemical.
Experimental: The formulation described in table 1 was tested for stability of all three active ingredients for two weeks at 54° C.
Setting [3] is: formulation of table 1 (micro emulsion, pH 6.7), two weeks at 54° C.
[4] abbreviates: formulation of table 3 (emulsifiable concentrate), two weeks at 54° C.

With `COc1c(Cl)ccc(Cl)c1C(=O)O` [Dicamba], the “% wt after 2 week at 54° C.” value in data set [1] was found to be 0.45 % wt. The compound also returned an Initial % wt in data set [1] of 0.64 % wt. Further, the “stability of active ingredient” value in data set [1] (setting [3]) and in data set [1] (setting [4]) was “remained unchanged” throughout.
Regarding `CCCCCCC(C)OC(=O)COc1nc(F)c(Cl)c(N)c1Cl` (centres unmarked) [fluroxypyr MHE, Fluroxypyr MHE], the “stability of active ingredient” value in data set [1] (setting [3]) and in data set [1] (setting [4]) was “remained unchanged” in each case.
For `CCOC(=O)[C@@H](C)Oc1ccc(Oc2nc3ccc(Cl)cc3o2)cc1` [fenoxaprop-p-ethyl, Fenoxaprop-p-ethyl], the “fenoxaprop-p-ethyl content, 2-week” value in data set [2] (formulation of table 1, 2 weeks) is 2.61 wt %. Further, the “fenoxaprop-p-ethyl content, 4-week” value in data set [2] (formulation of table 1, 4 weeks) amounted to 2.24 wt %. Also, the “fenoxaprop-p-ethyl content, 6-week” value in data set [2] (formulation of table 1, 6 weeks) came out at 2.15 wt %. For the same compound, the “fenoxaprop-p-ethyl content, 8-week” value in data set [2] (formulation of table 1, 8 weeks) came to 1.91 wt %. Also, the “fenoxaprop-p-ethyl content, 12-week” value in data set [2] (formulation of table 1, 12 weeks) was 1.28 wt %. Besides, the “fenoxaprop-p-ethyl content, 14-week” value in data set [2] (formulation of table 1, 14 weeks) is reported as 0.87 wt %. The “fenoxaprop-p-ethyl content, Initial” value in data set [2] (formulation of table 1, initial) turned out to be 2.82 wt %. In addition, in data set [1], the “% wt after 2 week at 54° C.” value is recorded as 0.60 % wt and the Initial % wt is listed as 0.60 % wt. The recovered after storage in data set [1] (setting [3]) was determined as 1%.
Turning to `Cc1cc(Cl)ccc1O[C@@H](C)C(=O)O` [MCPP-p], in data set [1], the “% wt after 2 week at 54° C.” value stood at 1.39 % wt and the Initial % wt is reported as 1.53 % wt.
For the compound `O=C(O)COc1nc(Cl)c(Cl)cc1Cl` [Triclopyr, Triclopyr ACID], in data set [1], the “% wt after 2 week at 54° C.” value is 1.75 % wt and the Initial % wt is 1.78 % wt.

These data come from patent publication US20160050919A1, “ACETYL-COA CARBOXYLASE INHIBITOR HERBICIDE AND AUXIN HERBICIDE FORMULATIONS” (Nufarm Americas, Inc., priority 2014, published 2016).
